Results: patent US5457092A, “Methods of promoting bone growth in mammals comprising administration of modified parathyroid hormone” (Gesellschaft fur Biotechnologische Forschung mbH (GBF), priority 1987, dated 1995)

Assays:
renal PTH receptor = conditions: Adv. Protein Chemistry 35 (1982) 323 ff. (Potts et al.); cited from earlier work
[1] = test system: chondrocytes from sterna of 16-day-old embryonic chicks; test: Stimulation of DNA synthesis in chondrocytes by PTH fragments (Table 1); type: cell-based, chick; conditions: for [^3 H]thymidine incorporation: 4 h, control 324 ± 18; for E/C: stimulated / non-induced control cells
Method: Chondrocytes were isolated from sterna of 16-day-old embryonic chicks according to J. Biol. Chem., 261 (1986) 7997-8001 (10; Yasui et al.) with some modifications. Collagenase was dissolved in Hanks' balanced salt solution (0.4 mM Na2 HPO4, 140 mN NaCl, 5.3 mM KCl, 0.4 mM MgSO4, 1.3 mM CaCl2, 0.4 mM KH2 PO4, 0.5 mM MglC2, 5 mM glucose, 0.05% gentamicin) at a concentration of 286 units/ml. Sterna were treated repeatedly for 30 min with collagenase solution at 37° C. Cells first released by this procedure were discarded because of their very poor responsiveness towards PTH. The collagenase treatment was subsequently repeated leading to a highly homogenous cell population of chondrocytes. The cells obtained by a second collagenase treatment were collected by centrifugation (1000 rpm, 10 min), washed twice with medium (Dulbecco's modified Eagle's medium, GIBCO, supplemented with NaHCO3 (45 mM), glutamine (2 mM), penicillin G/streptomycin (65 mg/1 and 100 mg/l, respectively), Hepes (10 mM, pH 7.2), and FCS (10% v/v) and counted.
The DNA synthesis rate was assayed in monolayer culture by the incorporation of ]^3 H]thymidine into perchloric acid-precipitable material. […] After 17 h, the medium was replaced by 200 μl of serum-free medium. After 4 days, chondrocytes were incubated for 4 h with the appropriate effector and 1μ Ci of [^3 H]thymidine. Subsequently, medium was removed and the cells were washed twice with 200 μl of phosphate-buffered saline (PBS: 137 mM NaCl, 2.7 mN KCl, 1.5 mM KH2 PO4, 0.8 mN Na2 HPO4, pH 7.0). Then cells were lysed by 100 μl of 2% (v/v) Nonidet P- 40 and 2% (w/v) sodium dodecyl sulfate treatment and the perchloric acid-insoluble material was precipitated by adding an equal volume of ice-cold 2% (w/v) perchloric acid in the presence of 1% herring sperm DNA as carrier. After storage for 10 min at -20° C., the precipitated material of each well was transferred to glass fiber filters with a Scatron--As semiautomatic cell harvester. Filters were dried at 80° C. for 20 min, transferred into scintillation vials, and 2 ml of scintillation mixture (scintillator 299; United Technology Pachard) were added. Radioactivity of the samples was determined with a β counter (Minimax; United Technology Pachard). Each test consisted of 5 up to 10 identically treated wells and was repeated at least twice with freshly prepared chondrocytes.
The incorporation of [^3 H]thymidine by non-induced control cells and by stimulated cells is shown by C and E, respectively. The results shown mean ±S.E. for n parallel cell cultures.

| Substance | binding to the renal PTH receptor (renal PTH receptor) | [^3 H]thymidine incorporation ([1]; 6.1 × 10^-4 mol/l) [cpm] | E/C ([1]; 6.1 × 10^-4 mol/l) | [^3 H]thymidine incorporation ([1]; 6.1 × 10^-5 mol/l) [cpm] | E/C ([1]; 6.1 × 10^-5 mol/l) | [^3 H]thymidine incorporation ([1]; 6.1 × 10^-6 mol/l) [cpm] | E/C ([1]; 6.1 × 10^-6 mol/l) | [^3 H]thymidine incorporation ([1]; 6.1 × 10^-7 mol/l) [cpm] | E/C ([1]; 6.1 × 10^-7 mol/l) | [^3 H]thymidine incorporation ([1]; 6.1 × 10^-8 mol/l) [cpm] | E/C ([1]; 6.1 × 10^-8 mol/l) |
| --- | --- | --- | --- | --- | --- | --- | --- | --- | --- | --- | --- |
| hPTH(28-48): mid-regional PTH fragment 28-48, human source (LQDVHNFVALGAPLAPRDAGS; Parathyroid hormone; UniProt P01270 59-79, looked up, fragment) | does not bind to the renal PTH receptor |  |  |  |  |  |  |  |  |  |  |
| hPTH(25-39): PTH fragment 25-39, human source (RKKLQDVHNFVALGA; Parathyroid hormone; UniProt P01270 56-70, looked up, fragment) |  | 542 ± 71 | 1.67 | 655 ± 147 | 2.02 | 517 ± 65 | 1.60 | 418 ± 41 | 1.29 | 452 ± 56 | 1.40 |
